In data set [1] the test system is PC3. Description: Tumor cell line proliferation assay (Alamar Blue). It counts as cell-based. The note with it: Homo sapiens, PC-3. (The colour change of resazurin is a common sign of viable cells or microbes.)
Description: The ability of one or more subject compounds to inhibit tumor cell line proliferation is determined according to standard procedures known in the art. For instance, an in vitro cellular proliferation assay can be performed to measure the metabolic activity of live cells. The assay is performed in a 96 well microtiter plate using Alamar Blue reduction. […] A compound disclosed herein is diluted in Tumor Cell Media and added in a 10 ul volume. […] A volume of 10 uL of Alamar Blue reagent is added to each well and plates are incubated for 3 hours at 37 C and 5% CO2. Alamar Blue fluoresce is read at 560Ex/590Em, and IC50 values are calculated using GraphPad Prism 5.
Data set [2] deals with mTORC (Homo sapiens (Human), UniProt P42345). The data set can be described thus: mTOR kinase inhibition assay. It counts as biochemical.
Description: The compounds described herein can be tested against recombinant mTOR (Invitrogen) in an assay containing 50 mM HEPES, pH 7.5, 1 mM EGTA, 10 mM MgCl2, 2.5 mM, 0.01% Tween, 10 μM ATP (2.5 μCi of p-32P-ATP), and 3 μg/mL BSA. Rat recombinant PHAS-1/4EBP1 (Calbiochem; 2 mg/mL) is used as a substrate. Reactions are terminated by spotting onto nitrocellulose, which is washed with 1M NaCl/1% phosphoric acid (approximately 6 times, 5-10 minutes each). Sheets are dried and the transferred radioactivity quantitated by phosphorimaging.
For instance, one can use Invitrogen's LanthaScreen™ Kinase assay to test the inhibitors of mTOR disclosed herein. This assay is a time resolved FRET platform that measures the phosphorylation of GFP labeled 4EBP1 by mTOR kinase. The kinase reaction is performed in a white 384 well microtitre plate. The total reaction volume is 20 ul per well and the reaction buffer composition is 50 mM HEPES pH7.5, 0.01% Polysorbate 20, 1 mM EGTA, 10 mM MnCl2, and 2 mM DTT. In the first step, each well receives 2 ul of test compound in 20% dimethylsulphoxide resulting in a 2% DMSO final concentration. Next, 8 ul of mTOR diluted in reaction buffer is added per well for a 60 ng/ml final concentration. To start the reaction, 10 ul of an ATP/GFP-4EBP1 mixture (diluted in reaction buffer) is added per well for a final concentration of 10 uM ATP and 0.5 uM GFP-4EBP1. The plate is sealed and incubated for 1 hour at room temperature. […] The plate is sealed, incubated for 1 hour at room temperature, and then read on a plate reader set up for LanthaScreen™ TR-FRET. Data is analyzed and IC50s are generated using GraphPad Prism 5.
In data set [3] the target is PI3K δ (Homo sapiens (Human), UniProt O00329). Description: PI3K δ inhibition assay. Type of data set: biochemical.
Description: (§1) IC50 values are measured using either a standard TLC assay for lipid kinase activity (described below) or a high-throughput membrane capture assay. Kinase reactions are performed by preparing a reaction mixture containing kinase, inhibitor (2% DMSO final concentration), buffer (25 mM HEPES, pH 7.4, 10 mM MgCl2), and freshly sonicated phosphatidylinositol (100 μg/ml). Reactions are initiated by the addition of ATP containing 10 μCi of γ-32P-ATP to a final concentration 10 or 100 μM and allowed to proceed for 5 minutes at room temperature. For TLC analysis, reactions are then terminated by the addition of 105 μl 1N HCl followed by 160 μl CHCl3:MeOH (1:1). The biphasic mixture is vortexed, briefly centrifuged, and the organic phase is transferred to a new tube using a gel loading pipette tip precoated with CHCl3. […] The TLC plates are then dried, exposed to a phosphorimager screen (Storm, Amersham), and quantitated.
(§2) Briefly, the assay is a time resolved FRET assay that indirectly measures PIP3 product formed by the activity of a PI3-K. The kinase reaction is performed in a microtitre plate (e.g., a 384 well microtitre plate). The total reaction volume is approximately 20 ul per well. In the first step, each well receives 2 ul of test compound in 20% dimethylsulphoxide resulting in a 2% DMSO final concentration. Next, approximately 14.5 ul of a kinase/PIP2 mixture (diluted in 1× reaction buffer) is added per well for a final concentration of 0.25-0.3 ug/ml kinase and 10 uM PIP2. The plate is sealed and incubated for 15 minutes at room temperature. To start the reaction, 3.5 ul of ATP (diluted in 1× reaction buffer) is added per well for a final concentration of 10 uM ATP. The plate is sealed and incubated for 1 hour at room temperature. The reaction is stopped by adding 5 ul of Stop Solution per well and then 5 ul of Detection Mix is added per well. The plate is sealed, incubated for 1 hour at room temperature, and then read on an appropriate plate reader. Data is analyzed and IC50s are generated using GraphPad Prism 5.
The target of data set [4] is PI3K β (Homo sapiens (Human), UniProt P42338). Description: PI3K β inhibition assay. It counts as biochemical.
Description: as §1, §2
For data set [5], the target named is PI3K γ (Homo sapiens (Human), UniProt P48736). Description: PI3K γ inhibition assay. It counts as biochemical.
Description: as §1, §2
In data set [6] the target is PI3K α (Homo sapiens (Human), UniProt P42336). Description: PI3K α inhibition assay. Type of data set: biochemical.
Description: as §1, §2
The test system of data set [7] is B6.Sle1z.Sle3z model. Conditions: cited from earlier work.
The conditions of data set [8]: PBS pH 7.4, 24 hours, 37 C; cited from earlier work.
For data set [9], the system named is leukemic cells from p190 transduced cultures. Conditions: about 70 mg/kg twice daily; cited from earlier work.
For data set [10] the following is noted: control compounds, 5 μM; cited from earlier work.
Data set [11] has as its system PI3K/Akt/mTor signaling. The data set can be described thus: Kinase signaling in blood (phosflow). Type of data set: cell-based. The note with it: anti-CD3 stimulation. The protocol: PI3K/Akt/mTor signaling is measured in blood cells using the phosflow method (Methods Enzymol. 2007; 434:131-54). The advantage of this method is that it is by nature a single cell assay so that cellular heterogeneity can be detected rather than population averages. This allows concurrent dinstinction of signaling states in different populations defined by other markers. Phosflow is also highly quantitative. To test the effects of the inhibitors disclosed herein, unfractionated splenocytes, or peripheral blood mononuclear cells are stimulated with anti-CD3 to initiate T-cell receptor signaling. The cells are then fixed and stained for surface markers and intracellular phosphoproteins.
Similarly, aliquots of whole blood are incubated for 15 minutes with vehicle (e.g. 0.1% DMSO) or kinase inhibitors at various concentrations, before addition of stimuli to crosslink the T cell receptor (TCR) (anti-CD3 with secondary antibody) or the B cell receptor (BCR) using anti-kappa light chain antibody (Fab′2 fragments). After approximately 5 and 15 minutes, samples are fixed (e.g. with cold 4% paraformaldehyde) and used for phosflow. […] The level of phosphrylation of kinase substrates such as Akt and S6 are then measured by incubating the fixed cells with labeled antibodies specific to the phosphorylated isoforms of these proteins. The population of cells are then analyzed by flow cytometery. […]

pIC50: −log10 of the molar value. Like-named read-outs stand apart in the source and are kept apart here.

PI3K α, sequence (P42336 whole entry): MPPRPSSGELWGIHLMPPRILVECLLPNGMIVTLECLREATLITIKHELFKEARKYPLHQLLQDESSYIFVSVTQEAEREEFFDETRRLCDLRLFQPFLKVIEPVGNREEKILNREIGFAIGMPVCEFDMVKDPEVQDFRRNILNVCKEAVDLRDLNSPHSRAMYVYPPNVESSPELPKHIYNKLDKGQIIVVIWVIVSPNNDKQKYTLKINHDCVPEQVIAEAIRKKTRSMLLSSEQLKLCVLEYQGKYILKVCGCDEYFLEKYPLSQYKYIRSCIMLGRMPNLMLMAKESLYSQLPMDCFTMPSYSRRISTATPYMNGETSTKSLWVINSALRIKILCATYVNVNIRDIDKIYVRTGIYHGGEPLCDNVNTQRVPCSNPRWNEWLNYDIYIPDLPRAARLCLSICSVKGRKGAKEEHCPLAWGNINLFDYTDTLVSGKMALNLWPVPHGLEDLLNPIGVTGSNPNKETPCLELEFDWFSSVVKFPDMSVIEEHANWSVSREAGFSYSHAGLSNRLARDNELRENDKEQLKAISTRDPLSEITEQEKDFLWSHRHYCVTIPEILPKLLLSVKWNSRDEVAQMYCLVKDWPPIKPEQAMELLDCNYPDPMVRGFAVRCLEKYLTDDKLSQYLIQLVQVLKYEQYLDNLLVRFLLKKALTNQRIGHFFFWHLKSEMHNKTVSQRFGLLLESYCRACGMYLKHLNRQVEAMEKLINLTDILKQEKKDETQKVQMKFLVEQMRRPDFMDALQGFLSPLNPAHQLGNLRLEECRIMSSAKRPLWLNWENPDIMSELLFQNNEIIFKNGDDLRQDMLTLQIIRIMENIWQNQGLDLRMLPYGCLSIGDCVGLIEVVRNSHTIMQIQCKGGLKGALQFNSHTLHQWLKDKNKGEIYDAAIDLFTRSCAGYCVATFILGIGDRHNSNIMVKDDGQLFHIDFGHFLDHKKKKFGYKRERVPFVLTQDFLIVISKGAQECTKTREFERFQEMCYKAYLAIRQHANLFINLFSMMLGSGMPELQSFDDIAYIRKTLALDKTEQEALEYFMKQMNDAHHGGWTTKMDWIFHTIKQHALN
PI3K α, sequence (P27986 whole entry partner): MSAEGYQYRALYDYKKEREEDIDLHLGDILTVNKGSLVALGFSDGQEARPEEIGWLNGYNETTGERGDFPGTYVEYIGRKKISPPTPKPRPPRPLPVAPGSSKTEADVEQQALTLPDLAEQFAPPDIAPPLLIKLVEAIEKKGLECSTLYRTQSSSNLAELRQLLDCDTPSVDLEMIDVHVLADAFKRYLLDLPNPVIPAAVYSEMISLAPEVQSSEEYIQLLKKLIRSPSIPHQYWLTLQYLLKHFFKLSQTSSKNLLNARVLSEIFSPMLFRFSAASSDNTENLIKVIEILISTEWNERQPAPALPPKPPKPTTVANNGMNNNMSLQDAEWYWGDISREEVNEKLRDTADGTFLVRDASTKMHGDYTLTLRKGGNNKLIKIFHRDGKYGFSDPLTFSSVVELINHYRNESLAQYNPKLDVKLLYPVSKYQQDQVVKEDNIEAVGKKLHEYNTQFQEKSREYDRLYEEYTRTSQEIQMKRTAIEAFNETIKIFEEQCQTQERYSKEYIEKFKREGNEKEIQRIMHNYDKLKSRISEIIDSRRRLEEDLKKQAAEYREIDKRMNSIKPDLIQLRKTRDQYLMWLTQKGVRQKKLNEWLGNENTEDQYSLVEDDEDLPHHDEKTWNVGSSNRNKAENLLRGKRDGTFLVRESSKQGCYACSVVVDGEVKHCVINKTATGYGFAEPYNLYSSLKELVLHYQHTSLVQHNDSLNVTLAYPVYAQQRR
PI3K β, sequence (P42338 whole entry): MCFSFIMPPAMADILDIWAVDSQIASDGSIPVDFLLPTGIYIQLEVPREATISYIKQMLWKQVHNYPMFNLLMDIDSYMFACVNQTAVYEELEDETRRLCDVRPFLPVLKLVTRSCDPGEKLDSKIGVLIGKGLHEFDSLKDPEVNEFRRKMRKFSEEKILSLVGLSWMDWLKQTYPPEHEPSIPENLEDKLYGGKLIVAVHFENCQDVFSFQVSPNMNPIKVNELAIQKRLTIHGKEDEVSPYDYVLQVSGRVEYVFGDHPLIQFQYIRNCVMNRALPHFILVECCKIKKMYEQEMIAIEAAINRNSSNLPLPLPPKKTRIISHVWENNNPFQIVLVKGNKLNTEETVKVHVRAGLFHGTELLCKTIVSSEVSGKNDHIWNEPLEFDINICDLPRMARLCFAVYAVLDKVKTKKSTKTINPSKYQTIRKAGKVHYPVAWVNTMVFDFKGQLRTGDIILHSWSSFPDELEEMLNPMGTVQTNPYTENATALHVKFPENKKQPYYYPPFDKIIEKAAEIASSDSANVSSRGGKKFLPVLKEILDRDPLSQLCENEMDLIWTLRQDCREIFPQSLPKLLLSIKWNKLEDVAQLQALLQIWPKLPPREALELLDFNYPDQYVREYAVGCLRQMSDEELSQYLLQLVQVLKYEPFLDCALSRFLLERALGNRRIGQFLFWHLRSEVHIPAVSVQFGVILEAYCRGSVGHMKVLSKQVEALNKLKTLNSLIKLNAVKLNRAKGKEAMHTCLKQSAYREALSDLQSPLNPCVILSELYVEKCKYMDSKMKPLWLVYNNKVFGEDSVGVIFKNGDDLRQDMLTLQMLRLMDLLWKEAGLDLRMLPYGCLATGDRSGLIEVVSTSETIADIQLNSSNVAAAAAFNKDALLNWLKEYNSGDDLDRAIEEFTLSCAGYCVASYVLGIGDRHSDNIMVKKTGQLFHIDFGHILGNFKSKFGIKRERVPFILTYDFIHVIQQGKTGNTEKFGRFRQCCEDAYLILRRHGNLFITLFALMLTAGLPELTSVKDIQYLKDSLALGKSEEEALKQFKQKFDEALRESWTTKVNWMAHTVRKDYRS
PI3K β, sequence (P27986 whole entry partner): as the sequence (P27986 whole entry partner) above
PI3K γ, sequence (P48736 whole entry): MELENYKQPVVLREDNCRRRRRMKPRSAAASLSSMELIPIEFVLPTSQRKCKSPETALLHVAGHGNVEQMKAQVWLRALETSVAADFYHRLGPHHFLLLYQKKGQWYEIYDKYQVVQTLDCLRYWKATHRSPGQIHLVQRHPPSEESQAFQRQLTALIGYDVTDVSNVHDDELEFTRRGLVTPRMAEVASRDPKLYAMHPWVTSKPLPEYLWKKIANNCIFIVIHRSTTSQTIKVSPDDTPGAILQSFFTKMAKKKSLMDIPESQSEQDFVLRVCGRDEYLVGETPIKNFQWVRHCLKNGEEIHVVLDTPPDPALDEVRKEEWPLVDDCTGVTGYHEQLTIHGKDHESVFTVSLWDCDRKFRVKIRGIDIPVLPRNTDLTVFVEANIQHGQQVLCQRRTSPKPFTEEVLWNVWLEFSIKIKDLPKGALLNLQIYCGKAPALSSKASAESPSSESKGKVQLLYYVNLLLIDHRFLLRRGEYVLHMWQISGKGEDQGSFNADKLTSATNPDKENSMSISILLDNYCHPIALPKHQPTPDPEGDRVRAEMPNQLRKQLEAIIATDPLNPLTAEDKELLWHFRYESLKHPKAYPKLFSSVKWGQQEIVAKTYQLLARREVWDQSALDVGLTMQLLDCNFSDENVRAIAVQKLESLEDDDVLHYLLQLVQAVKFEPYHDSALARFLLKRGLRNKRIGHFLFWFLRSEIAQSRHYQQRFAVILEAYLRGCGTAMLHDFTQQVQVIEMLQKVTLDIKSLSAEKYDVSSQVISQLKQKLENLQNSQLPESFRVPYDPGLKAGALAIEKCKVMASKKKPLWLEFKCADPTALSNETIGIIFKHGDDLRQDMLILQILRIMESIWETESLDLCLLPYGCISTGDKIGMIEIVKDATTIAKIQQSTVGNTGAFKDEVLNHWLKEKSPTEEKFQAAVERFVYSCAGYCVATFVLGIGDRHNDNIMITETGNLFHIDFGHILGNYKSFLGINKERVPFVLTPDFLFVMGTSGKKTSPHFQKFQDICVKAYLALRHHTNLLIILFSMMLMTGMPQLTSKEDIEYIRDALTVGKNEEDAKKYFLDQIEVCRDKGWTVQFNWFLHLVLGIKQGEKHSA
PI3K δ, sequence (O00329 whole entry): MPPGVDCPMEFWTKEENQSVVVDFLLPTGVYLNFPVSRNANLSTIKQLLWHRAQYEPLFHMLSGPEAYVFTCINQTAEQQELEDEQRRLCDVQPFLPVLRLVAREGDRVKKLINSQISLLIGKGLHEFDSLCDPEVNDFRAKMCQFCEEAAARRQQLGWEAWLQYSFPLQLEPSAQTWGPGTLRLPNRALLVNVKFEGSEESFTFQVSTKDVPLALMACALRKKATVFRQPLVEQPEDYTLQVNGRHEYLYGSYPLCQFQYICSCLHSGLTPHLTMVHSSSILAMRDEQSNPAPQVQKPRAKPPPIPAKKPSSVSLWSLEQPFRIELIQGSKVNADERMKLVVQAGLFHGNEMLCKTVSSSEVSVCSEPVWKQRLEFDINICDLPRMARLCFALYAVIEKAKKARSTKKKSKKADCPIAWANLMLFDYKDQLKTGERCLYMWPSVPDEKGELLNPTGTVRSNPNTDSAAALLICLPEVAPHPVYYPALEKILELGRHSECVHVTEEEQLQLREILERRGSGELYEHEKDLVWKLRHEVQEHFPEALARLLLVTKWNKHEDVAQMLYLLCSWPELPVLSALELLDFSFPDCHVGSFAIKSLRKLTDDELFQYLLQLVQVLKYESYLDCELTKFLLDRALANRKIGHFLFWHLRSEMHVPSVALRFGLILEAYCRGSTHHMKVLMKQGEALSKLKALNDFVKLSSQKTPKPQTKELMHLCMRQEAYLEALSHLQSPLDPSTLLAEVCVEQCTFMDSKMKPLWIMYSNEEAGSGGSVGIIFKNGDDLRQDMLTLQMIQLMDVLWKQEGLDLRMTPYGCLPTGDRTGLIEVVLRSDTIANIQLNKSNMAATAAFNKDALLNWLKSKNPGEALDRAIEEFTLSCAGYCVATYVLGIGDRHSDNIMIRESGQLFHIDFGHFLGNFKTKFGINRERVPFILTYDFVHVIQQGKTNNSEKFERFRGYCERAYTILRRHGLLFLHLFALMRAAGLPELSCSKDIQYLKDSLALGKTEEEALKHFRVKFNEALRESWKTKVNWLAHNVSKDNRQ
PI3K δ, sequence (P27986 whole entry partner): as the sequence (P27986 whole entry partner) above

With `CC(C)n1nc(-c2cc3c(Cl)c(O)ccc3[nH]2)c2c(N)ncnc21` [Compound 22], in data set [1] (Table 1, PC3 cells, read-out: PC3 proliferation), the pIC50 is greater than 6.30.
Turning to `CNC(=O)Nc1nc2ccc(-c3nn(C4CCN(C(C)=O)CC4)c4ncnc(N)c34)cc2s1` [Compound 23], the pIC50 in data set [2] (Table 2, compound numbers of Table 3, read-out: IC50 results mTORC) is no less than 7.30; in data set [3] (Table 2, compound numbers of Table 3, read-out: IC50 results PI3K delta), no less than 7.30; in data set [4] (Table 2, compound numbers of Table 3, read-out: IC50 results PI3K beta), no less than 7.00; in [5] (Table 2, compound numbers of Table 3, read-out: IC50 results PI3K gamma) it was no less than 7.30; in [6] (Table 2, compound numbers of Table 3, read-out: IC50 results PI3K alpha), no less than 7.30; in [1] (Table 2, compound numbers of Table 3, read-out: IC50 results PC3 proliferation) it was less than 6.00.
On to `CC(=O)N1CCC(n2nc(-c3cc4ccc(O)cc4[nH]3)c3c(N)ncnc32)CC1` [Compound 65], for which the pIC50 in data set [2] (Table 1, read-out: mTORC IC50) was greater than 8.00; in data set [3] (Table 1, read-out: PI3K δ IC50), greater than 7.60; in data set [4] (Table 1, read-out: PI3K β IC50), less than 6.30; in data set [5] (Table 1, read-out: PI3K γ IC50), greater than 7.60; in data set [6] (Table 1, read-out: PI3K α IC50) it was greater than 7.30.
With `COc1cccc2cc(-c3nn(C4CCN(C(=O)C5CC5)CC4)c4ncnc(N)c34)[nH]c12` [Compound 66], the pIC50 in data set [2] (Table 1, read-out: mTORC IC50) is less than 6.30; in data set [3] (Table 1, read-out: PI3K δ IC50) it was less than 6.30; in [4] (Table 1, read-out: PI3K β IC50), less than 6.30; in [5] (Table 1, read-out: PI3K γ IC50), less than 6.30; in data set [6] (Table 1, read-out: PI3K α IC50), less than 6.30.
As to `COc1cc(Cl)c2[nH]c(-c3nn(C4CCOCC4)c4ncnc(N)c34)cc2c1` [Compound 67], the pIC50 was less than 6.30 in [2] (Table 1, read-out: mTORC IC50); less than 6.30 in data set [3] (Table 1, read-out: PI3K δ IC50); less than 6.30 in data set [4] (Table 1, read-out: PI3K β IC50); less than 6.30 in [5] (Table 1, read-out: PI3K γ IC50); less than 6.30 in data set [6] (Table 1, read-out: PI3K α IC50).
For `Nc1ncnc2c1c(-c1cc3cc(O)cc(Cl)c3[nH]1)nn2C1CCOCC1` [Compound 68], the pIC50 in data set [2] (Table 1, read-out: mTORC IC50) is greater than 8.30; in data set [3] (Table 1, read-out: PI3K δ IC50), greater than 7.60; in [4] (Table 1, read-out: PI3K β IC50), less than 6.30; in [5] (Table 1, read-out: PI3K γ IC50), greater than 7.30; in [6] (Table 1, read-out: PI3K α IC50), greater than 6.30.
The corresponding values for `CC(=O)N1CCC(n2nc(-c3cc4c(Cl)ccc(O)c4[nH]3)c3c(N)ncnc32)CC1` [Compound 69] are greater than 8.30, greater than 6.30, less than 6.30, less than 6.30 and less than 6.30.
For the compound `CC(=O)N1CCC(n2nc(-c3cc4cc(O)cc(Cl)c4[nH]3)c3c(N)ncnc32)CC1` [Compound 70], the pIC50 is greater than 8.30 in [2] (Table 1, read-out: mTORC IC50); greater than 7.60 in data set [3] (Table 1, read-out: PI3K δ IC50); less than 6.30 in data set [4] (Table 1, read-out: PI3K β IC50); greater than 7.00 in [5] (Table 1, read-out: PI3K γ IC50); greater than 6.30 in [6] (Table 1, read-out: PI3K α IC50).
For `CC(C)N1CCC(n2nc(-c3cc4c(Cl)ccc(O)c4[nH]3)c3c(N)ncnc32)CC1` [Compound 71] the same measures were greater than 7.00, less than 6.30, less than 6.30, less than 6.30 and less than 6.30.
As to `CO[C@H]1C[C@@H]2CC[C@@H](C)[C@@](O)(O2)C(=O)C(=O)N2CCCC[C@H]2C(=O)O[C@H]([C@H](C)C[C@@H]2CC[C@@H](OCCO)[C@H](OC)C2)CC(=O)[C@H](C)/C=C(\C)[C@@H](O)[C@@H](OC)C(=O)[C@H](C)C[C@H](C)/C=C/C=C/C=C/1C` [RAD001], the lupus symptoms entry in data set [7] is “ameliorate lupus symptoms”.
Take `O=C(O)CCCc1ccc(N(CCCl)CCCl)cc1` [chlorambucil]: the chemical stability entry in data set [8] is reported as “largely hydrolyzed over the course of 24 hours”.
As to `Cc1ccc(NC(=O)c2ccc(CN3CCN(C)CC3)cc2)cc1Nc1nccc(-c2cccnc2)n1` [imatinib], the leukemogenesis entry in data set [9] is “delay but not cure leukemogenesis”.
For `CC(C)[N+](C)(CCOC(=O)C1c2ccccc2Oc2ccccc21)C(C)C` [propantheline], the plasma stability entry in data set [10] is on record as “intermediate plasma stability”.
For the compound `CCCOc1cc(N)ccc1C(=O)OCCN(CC)CC` [propoxycaine], the plasma stability entry in data set [10] is on record as “low plasma stability”.
As for `CO[C@H]1C[C@@H]2CC[C@@H](C)[C@@](O)(O2)C(=O)C(=O)N2CCCC[C@H]2C(=O)O[C@H]([C@H](C)C[C@@H]2CC[C@@H](O)[C@H](OC)C2)CC(=O)[C@H](C)/C=C(\C)[C@@H](O)[C@@H](OC)C(=O)[C@H](C)C[C@H](C)/C=C/C=C/C=C/1C` [rapamycin], in data set [11], the Akt phosphorylation result is given as “enhances” and the S6 phosphorylation entry is “inhibits”.
